Results from PubChem BioAssay AID248 (DTP/NCI, 2004).
“And” between values parts separate entries of the source, which are not always exact repeats. Identical values can stand only once. Toxic doses and inconclusive results are not listed. No stated cut-off is given here; in the data, active means T/C of 150% or more; inactive means T/C below 125%.

Tested on: L1210 leukemia ip in BDF1 mice, survival T/C
Experiment: NCI In Vivo Anticancer Drug Screen. Data for tumor model L1210 Leukemia (intraperitoneal) in B6D2F1 (BDF1) mice
Conditions: endpoint: mean survival time, higher = longer survival
Procedure, shortened: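 Each compound was tested against a transplantable tumor grown in mice. The endpoint was survival, with treated animals benchmarked against vehicle controls as a simple ratio.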

[1] = dose: 100.0 mg/kg/injection, schedule: Q01DX001 (ip), vehicle: saline
[2] = dose: 100.0 mg/kg/injection, schedule: Q04DX003 (ip), vehicle: saline
[3] = dose: 200.0 mg/kg/injection, schedule: Q01DX001 (ip), vehicle: saline
[4] = dose: 200.0 mg/kg/injection, schedule: Q04DX003 (ip), vehicle: saline
[5] = dose: 400.0 mg/kg/injection, schedule: Q04DX003 (ip), vehicle: saline
[6] = dose: 100.0 mg/kg/injection, schedule: Q01DX009 (ip), vehicle: Klucel (hydroxypropylcellulose) (HPC)
[7] = dose: 200.0 mg/kg/injection, schedule: Q01DX009 (ip), vehicle: Klucel (hydroxypropylcellulose) (HPC)
[8] = dose: 400.0 mg/kg/injection, schedule: Q01DX009 (ip), vehicle: Klucel (hydroxypropylcellulose) (HPC)
[9] = dose: 100.0 mg/kg/injection, schedule: Q04DX003 (ip), vehicle: Klucel (hydroxypropylcellulose) (HPC)
[10] = dose: 200.0 mg/kg/injection, schedule: Q04DX003 (ip), vehicle: Klucel (hydroxypropylcellulose) (HPC)
[11] = dose: 400.0 mg/kg/injection, schedule: Q04DX003 (ip), vehicle: Klucel (hydroxypropylcellulose) (HPC)
[12] = dose: 100.0 mg/kg/injection, schedule: Q01DX001 (ip), vehicle: Klucel (hydroxypropylcellulose) (HPC)
[13] = dose: 200.0 mg/kg/injection, schedule: Q01DX001 (ip), vehicle: Klucel (hydroxypropylcellulose) (HPC)
[14] = dose: 400.0 mg/kg/injection, schedule: Q01DX001 (ip), vehicle: Klucel (hydroxypropylcellulose) (HPC)
[15] = dose: 100.0 mg/kg/injection, schedule: Q01DX009 (ip), vehicle: saline with Tween-80

Measured: T/C

S=C(NCc1ccccc1)[S][Sn]([c]1ccccc1)([c]1ccccc1)[c]1ccccc1
inactive: dose: 5.0 mg/kg/injection, schedule: Q01DX001 (ip), vehicle: steriod suspending solution 101 % of control | dose: 10.0 mg/kg/injection, schedule: Q01DX001 (ip), vehicle: steriod suspending solution 103 % of control | dose: 20.0 mg/kg/injection, schedule: Q01DX001 (ip), vehicle: steriod suspending solution 93 % of control | dose: 40.0 mg/kg/injection, schedule: Q01DX001 (ip), vehicle: steriod suspending solution 113 % of control | dose: 80.0 mg/kg/injection, schedule: Q01DX001 (ip), vehicle: steriod suspending solution 104 % of control

CCCC/C=C/C#N
inactive: dose: 75.0 mg/kg/injection, schedule: Q01DX009 (ip), vehicle: saline 100 % of control | [1] 106 % of control | [2] 98 % of control | dose: 150.0 mg/kg/injection, schedule: Q01DX009 (ip), vehicle: saline 97 % of control | [3] 96 % of control | [4] 101 % of control | dose: 400.0 mg/kg/injection, schedule: Q01DX001 (ip), vehicle: saline 92 % of control | [5] 94 % of control

C=C1C=C(C)N(C(=O)c2ccc(Cl)cc2)CCN1C(=O)c1ccc(Cl)cc1
inactive: [6] 100 % of control | [7] 90 % of control | [8] 92 % of control

CCCCS/C=C1/Sc2cc[nH]c2C1=O
inactive: [9] 96 % of control | [10] 96 % of control | [11] 94 % of control

CC(=O)Nc1nnc(/C=C/c2ccc([N+](=O)[O-])o2)s1
inactive: [9] 87 % of control | [10] 89 % of control | [11] 100 % of control

Cc1cc(=O)[nH]c2c1CCCCC2
inactive: [12] 98 % of control | [13] 96 % of control | [14] 96 % of control

Cc1ccc(NC(=O)NC2CCCCC2)cc1
inactive: [15] 94 % of control | dose: 200.0 mg/kg/injection, schedule: Q01DX009 (ip), vehicle: saline with Tween-80 97 % of control | dose: 400.0 mg/kg/injection, schedule: Q01DX009 (ip), vehicle: saline with Tween-80 92 % of control

CCOC1=CCN(S(=O)(=O)c2ccc(C)cc2)c2ccc(OC)cc21
inactive: [6] 100 % of control | [9] 104 % of control | [7] 96 % of control | [10] 94 % of control | [8] 89 % of control | [11] 98 % of control

BrCC(CBr)(CBr)CBr
inactive: dose: 100.0 mg/kg/injection, schedule: Q01DX009 (ip), vehicle: saline 103 % of control | [2] 93 % of control | dose: 200.0 mg/kg/injection, schedule: Q01DX009 (ip), vehicle: saline 97 % of control | [4] 100 % of control | [5] 101 % of control

C1=C\CCC2(OCCO2)C2(CC/1)OCCO2
inactive: dose: 50.0 mg/kg/injection, schedule: Q04DX003 (ip), vehicle: Klucel (hydroxypropylcellulose) (HPC) 100 % of control | [12] 111 % of control | [6] 104 % of control | [9] 100 % of control | [13] 109 % of control | [7] 98 % of control | [10] 97 % of control | [14] 105 % of control | [8] 98 % of control | [11] 95 % of control

c1ccc(N2CCNCC2)cc1 (tested in a mixture with another compound)
inactive: dose: 5.0 mg/kg/injection, schedule: Q01DX001 (ip), vehicle: saline 105 % of control and 101 % of control and 97 % of control | dose: 10.0 mg/kg/injection, schedule: Q01DX001 (ip), vehicle: saline 105 % of control and 97 % of control | dose: 20.0 mg/kg/injection, schedule: Q01DX001 (ip), vehicle: saline 105 % of control and 94 % of control and 95 % of control | dose: 40.0 mg/kg/injection, schedule: Q01DX001 (ip), vehicle: saline 102 % of control and 100 % of control | dose: 80.0 mg/kg/injection, schedule: Q01DX001 (ip), vehicle: saline 100 % of control | [1] 98 % of control | [3] 96 % of control

O=C1c2ccccc2C(=O)N1CCS(=O)(=O)Cl
inactive: dose: 25.0 mg/kg/injection, schedule: Q01DX001 (ip), vehicle: carboxymethylcellulose (CMC) 104 % of control | dose: 25.0 mg/kg/injection, schedule: Q01DX009 (ip), vehicle: carboxymethylcellulose (CMC) 92 % of control and 96 % of control | dose: 50.0 mg/kg/injection, schedule: Q01DX001 (ip), vehicle: carboxymethylcellulose (CMC) 100 % of control | dose: 50.0 mg/kg/injection, schedule: Q01DX009 (ip), vehicle: carboxymethylcellulose (CMC) 92 % of control and 102 % of control | dose: 50.0 mg/kg/injection, schedule: Q04DX003 (ip), vehicle: carboxymethylcellulose (CMC) 97 % of control and 98 % of control | dose: 100.0 mg/kg/injection, schedule: Q01DX001 (ip), vehicle: carboxymethylcellulose (CMC) 92 % of control and 99 % of control | dose: 100.0 mg/kg/injection, schedule: Q01DX009 (ip), vehicle: carboxymethylcellulose (CMC) 92 % of control and 95 % of control and 89 % of control | dose: 100.0 mg/kg/injection, schedule: Q04DX002 (ip), vehicle: carboxymethylcellulose (CMC) 93 % of control and 97 % of control | dose: 100.0 mg/kg/injection, schedule: Q04DX003 (ip), vehicle: carboxymethylcellulose (CMC) 100 % of control and 113 % of control | dose: 200.0 mg/kg/injection, schedule: Q01DX001 (ip), vehicle: carboxymethylcellulose (CMC) 97 % of control | dose: 200.0 mg/kg/injection, schedule: Q04DX002 (ip), vehicle: carboxymethylcellulose (CMC) 97 % of control | dose: 200.0 mg/kg/injection, schedule: Q04DX003 (ip), vehicle: carboxymethylcellulose (CMC) 100 % of control and 102 % of control | dose: 400.0 mg/kg/injection, schedule: Q01DX001 (ip), vehicle: carboxymethylcellulose (CMC) 92 % of control | dose: 400.0 mg/kg/injection, schedule: Q01DX009 (ip), vehicle: carboxymethylcellulose (CMC) 86 % of control | dose: 400.0 mg/kg/injection, schedule: Q04DX002 (ip), vehicle: carboxymethylcellulose (CMC) 97 % of control and 100 % of control

NC1CCc2ccccc2C(O)C1c1ccccc1 (stereo not given)
inactive: dose: 25.0 mg/kg/injection, schedule: Q01DX009 (ip), vehicle: saline with Tween-80 97 % of control | dose: 25.0 mg/kg/injection, schedule: Q04DX003 (ip), vehicle: saline with Tween-80 107 % of control | dose: 50.0 mg/kg/injection, schedule: Q01DX009 (ip), vehicle: saline with Tween-80 105 % of control | dose: 50.0 mg/kg/injection, schedule: Q04DX003 (ip), vehicle: saline with Tween-80 104 % of control | [15] 100 % of control | dose: 100.0 mg/kg/injection, schedule: Q04DX003 (ip), vehicle: saline with Tween-80 102 % of control

CC(C)(CO)C(O)C(=O)NCCCCC1CCCCC1 (stereo not given)
inactive: [9] 98 % of control | [10] 93 % of control | [11] 88 % of control
